In PubChem BioAssay AID2060506 (Molecular Pharmacology Branch, DTP, NCI, 2025):

System: 598228-144-R-J1-PDC complex spheroid viability
Assay: Anticancer human tumor 598228-144-R-J1-PDC patient-derived serous endometrial adenocarcinoma cell line growth inhibition [GQUAD]
Settings: for IC50: curve of first compound; for viability, T/C: stronger effect = lower value
In short: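 Multi-cell-type spheroids of tumor cells with HUVEC and mesenchymal stem cells, treated with drug combinations. Concentrations descend in half-log steps from near clinical Cmax, or from 10 microM where Cmax is unknown; viability read-out.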
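Note: spheroids exposed to the agents for one week before reading.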
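Throughout, for viability, T/C: percent of vehicle DMSO control viability so 100% = untreated growth.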

C=CCn1c(=O)c2cnc(Nc3ccc(N4CCN(C)CC4)cc3)nc2n1-c1cccc(C(C)(C)O)n1 + Cc1[nH]c2ccc(F)cc2c1-c1nc2c3cccnc3c3ncccc3c2[nH]1
IC50 (second compound 0.0316 µM): 0.999 µM
IC50 (second compound 0.1 µM): > 10 µM
IC50 (second compound 0.316 µM): > 10 µM
IC50 (second compound 1 µM): > 10 µM
IC50 (second compound 3.16 µM): < 0.0316 µM
IC50 (second compound 10 µM): > 10 µM
viability, T/C (second compound 0.0316 µM, first compound 0.0316 µM): 110%
viability, T/C (second compound 0.0316 µM, first compound 0.1 µM): 102%
viability, T/C (second compound 0.0316 µM, first compound 0.316 µM): 83.2%
viability, T/C (second compound 0.0316 µM, first compound 1 µM): 48.3%
viability, T/C (second compound 0.0316 µM, first compound 3.16 µM): 47.1%
viability, T/C (second compound 0.0316 µM, first compound 10 µM): 52.8%
viability, T/C (second compound 0.1 µM, first compound 0.0316 µM): 125%
viability, T/C (second compound 0.1 µM, first compound 0.1 µM): 84.6%
viability, T/C (second compound 0.1 µM, first compound 0.316 µM): 62.5%
viability, T/C (second compound 0.1 µM, first compound 1 µM): 53.4%
viability, T/C (second compound 0.1 µM, first compound 3.16 µM): 52.8%
viability, T/C (second compound 0.1 µM, first compound 10 µM): 55.9%
viability, T/C (second compound 0.316 µM, first compound 0.0316 µM): 77.7%
viability, T/C (second compound 0.316 µM, first compound 0.1 µM): 75.4%
viability, T/C (second compound 0.316 µM, first compound 0.316 µM): 66.1%
viability, T/C (second compound 0.316 µM, first compound 1 µM): 48.9%
viability, T/C (second compound 0.316 µM, first compound 3.16 µM): 55.6%
viability, T/C (second compound 0.316 µM, first compound 10 µM): 62.4%
viability, T/C (second compound 1 µM, first compound 0.0316 µM): 52%
viability, T/C (second compound 1 µM, first compound 0.1 µM): 59.8%
viability, T/C (second compound 1 µM, first compound 0.316 µM): 46.7%
viability, T/C (second compound 1 µM, first compound 1 µM): 48.7%
viability, T/C (second compound 1 µM, first compound 3.16 µM): 55%
viability, T/C (second compound 1 µM, first compound 10 µM): 74.5%
viability, T/C (second compound 3.16 µM, first compound 0.0316 µM): 40.1%
viability, T/C (second compound 3.16 µM, first compound 0.1 µM): 35.1%
viability, T/C (second compound 3.16 µM, first compound 0.316 µM): 39.9%
viability, T/C (second compound 3.16 µM, first compound 1 µM): 44.6%
viability, T/C (second compound 3.16 µM, first compound 3.16 µM): 59%
viability, T/C (second compound 3.16 µM, first compound 10 µM): 62.3%
viability, T/C (second compound 10 µM, first compound 0.0316 µM): 73.6%
viability, T/C (second compound 10 µM, first compound 0.1 µM): 54.6%
viability, T/C (second compound 10 µM, first compound 0.316 µM): 50.4%
viability, T/C (second compound 10 µM, first compound 1 µM): 42.4%
viability, T/C (second compound 10 µM, first compound 3.16 µM): 52.2%
viability, T/C (second compound 10 µM, first compound 10 µM): 57.7%
